The text below walks through data of US7196110B2, “N-substituted tricyclic 3-aminopyrazoles as inhibitors for the treatment of cell proliferative disorders” (Janssen Phamaceutica N.V., priority 2002, dated 2007).

The target of the assay is T1, PDGF-receptor beta enzyme comprising the tyrosine kinase domain (Homo sapiens, UniProt P09619).
T1 construct: from amino acid 545 to 1106 of GenBank Access NO: AAA36427
The assay is described as follows: Inhibition of PDGF-receptor kinase activity (cell-free, PLC1 peptide, 33P Flashplate). Format: biochemical. As to conditions: PDGF-R kinase activity; for inhibition at 10 µM: compound at 10 uM, read-out: Percent Inhibition @ 10 uM; for IC50: read-out: IC50. The gist of the method: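 Recombinant kinase domain (aa 545–1106) phosphorylated a biotinylated PLC1 peptide with 5 μM ATP plus 33P-γ-ATP, in Tris pH 8, MgCl2, Na3VO4 and 1 mM DTT, for 60 min at 30 °C. Retained 33P was counted after washing. IC50 is the concentration halving activity versus no-inhibitor reactions.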

A word on the inhibition: it is the change of the read-out against control, counted positive when it falls. For orientation: IC50 means the concentration at which inhibition is half-maximal.

T1 sequence (P09619 545-1106): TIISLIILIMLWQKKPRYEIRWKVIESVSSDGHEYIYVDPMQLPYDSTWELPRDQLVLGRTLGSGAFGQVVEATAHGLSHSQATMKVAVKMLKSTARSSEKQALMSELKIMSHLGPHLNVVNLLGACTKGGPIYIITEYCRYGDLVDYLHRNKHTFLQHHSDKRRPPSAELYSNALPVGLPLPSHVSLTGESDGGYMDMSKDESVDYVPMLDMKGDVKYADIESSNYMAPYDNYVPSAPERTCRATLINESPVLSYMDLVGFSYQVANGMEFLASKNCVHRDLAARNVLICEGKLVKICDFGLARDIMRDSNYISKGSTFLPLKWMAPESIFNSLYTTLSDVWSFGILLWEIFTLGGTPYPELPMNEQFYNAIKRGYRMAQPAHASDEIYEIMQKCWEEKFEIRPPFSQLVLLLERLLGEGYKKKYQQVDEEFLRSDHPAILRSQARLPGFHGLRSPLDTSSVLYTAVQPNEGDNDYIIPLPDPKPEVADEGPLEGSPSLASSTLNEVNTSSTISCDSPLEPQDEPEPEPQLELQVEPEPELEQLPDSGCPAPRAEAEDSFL

As for `COc1cc2c(cc1OC)C(C)(C)c1c-2n[nH]c1Nc1cccc(F)c1` [Compound 487, (6,7-Dimethoxy-4,4-dimethyl-2,4-dihydro-indeno[1,2-c]pyrazol-3-yl)-(3-fluoro-phenyl)-amine], the inhibition at 10 µM was determined as 43% and the concentration for half-maximal inhibition (IC50) is 37500 nM.
For `COc1cccc(Nc2[nH]nc3c2C(C)(C)c2cc(OC)c(OC)cc2-3)c1` [Compound 488, (6,7-Dimethoxy-4,4-dimethyl-2,4-dihydro-indeno[1,2-c]pyrazol-3-yl)-(3-methoxy-phenyl)-amine], in that order: 33.5% and 39300 nM.
In the case of `CCOc1cccc(Nc2[nH]nc3c2C(C)(C)c2cc(OC)c(OC)cc2-3)c1` [Compound 489, (6,7-Dimethoxy-4,4-dimethyl-2,4-dihydro-indeno[1,2-c]pyrazol-3-yl)-(3-ethoxy-phenyl)-amine], the inhibition at 10 µM came to 25.5%.
With `CCCC(=O)OCn1nc2c(c1Nc1cccc(F)c1)Cc1cc(OC)c(OC)cc1-2` [Compound 491, Butyric acid 3-(3-fluoro-phenylamino)-6,7-dimethoxy-4H-indeno[1,2-c]pyrazol-2-ylmethyl ester], the inhibition at 10 µM came out at 92% and the IC50 worked out at 314 nM.
For `COc1cc2c(cc1OC)-c1c(c(Nc3cccc(F)c3)nn1C(=O)c1ccc(F)cc1)C2` [Compound 492, (4-Fluoro-phenyl)-[3-(3-fluoro-phenylamino)-6,7-dimethoxy-4H-indenol[1,2-c]pyrazol-1-yl]-methanone], in that order: 78% and 472 nM.
For `COc1cc2c(cc1OC)-c1c(c(Nc3cccc(F)c3)nn1C(=O)c1ccc(Cl)cc1)C2` [Compound 494, (4-Chloro-phenyl)-[3-(3-fluoro-phenylamino)-6,7-dimethoxy-4H-indeno[1,2-c]pyrazol-1-yl]-methanone], in that order: 83% and 1540 nM.
For the molecule `COc1cc2c(cc1OC)-c1c(c(Nc3cccc(F)c3)nn1COC(C)=O)C2` [Compound 496, Acetic acid 3-(3-fluoro-phenylamino)-6,7-dimethoxy-4H-indeno[1,2-c]pyrazol-1-ylmethyl ester], the inhibition at 10 µM turned out to be 88.5% and the 50% inhibitory concentration (IC50) turned out to be 13.6 nM.
As for `COc1cc2c(cc1OC)-c1nn(COC(C)=O)c(Nc3cccc(F)c3)c1C2` [Compound 497, Acetic acid 3-(3-fluoro-phenylamino)-6,7-dimethoxy-4H-indeno[1,2-c]pyrazol-2-ylmethyl ester], the inhibition at 10 µM came to 97% and the IC50 is 77.7 nM.
For the molecule `COc1cc2c(cc1OC)-c1c(c(Nc3cccc(F)c3)nn1Cc1ccc(OC(C)=O)cc1)C2` [Compound 498, Acetic acid 4-[3-(3-fluoro-phenylamino)-6,7-dimethoxy-4H-indeno[1,2-c]pyrazol-1-ylmethyl]-phenyl ester], the inhibition at 10 µM was 51.5% and the concentration for half-maximal inhibition (IC50) was determined as 8330 nM.
On to `COc1cc2c(cc1OC)-c1nn(Cc3ccc(OC(C)=O)cc3)c(Nc3cccc(F)c3)c1C2` [Compound 499, Acetic acid 4-[3-(3-fluoro-phenylamino)-6,7-dimethoxy-4H-indeno[1,2-c]pyrazol-2-ylmethyl]-phenyl ester], for which the inhibition at 10 µM was determined as 87% and the IC50 was 1740 nM.
For `COc1cc2c(cc1OC)-c1c(c(Nc3cccc(F)c3)nn1C(=O)Oc1ccc(F)cc1)C2` [Compound 500, 3-(3-Fluoro-phenylamino)-6,7-dimethoxy-4H-indeno[1,2-c]pyrazole-1-carboxylic acid 4-fluoro-phenyl ester], in that order: 80.5% and 492 nM.
For `COc1cc2c(cc1OC)-c1c(c(Nc3cccc(F)c3)nn1C(=O)Oc1ccc(Cl)cc1)C2` [Compound 501, 3-(3-Fluoro-phenylamino)-6,7-dimethoxy-4H-indeno[1,2-c]pyrazole-1-carboxylic acid 4-chloro-phenyl ester], in that order: 90% and 96 nM.
Regarding `COc1cc2c(cc1OC)-c1c(c(Nc3cccc(F)c3)nn1CC(C)O)C2` (centres unmarked) [Compound 502, 1-[3-(3-Fluoro-phenylamino)-6,7-dimethoxy-4H-indeno[1,2-c]pyrazol-1-yl]-propan-2-ol], the inhibition at 10 µM worked out at 60.5% and the concentration for half-maximal inhibition (IC50) stood at 54000 nM.
For `COc1cc2c(cc1OC)-c1nn(C(=O)Oc3ccc(F)cc3)c(Nc3cccc(F)c3)c1C2` [Compound 503, 3-(3-Fluoro-phenylamino)-6,7-dimethoxy-4H-indeno[1,2-c]pyrazole-2-carboxylic acid 4-fluoro-phenyl ester], in that order: 103% and 45.1 nM.
Regarding `CCOc1cccc(Nc2[nH]nc3c2C(C)c2cc(OCC)c(OCC)cc2-3)c1` (centres unmarked) [Compound 504, (6,7-Diethoxy-4-methyl-2,4-dihydro-indeno[1,2-c]pyrazol-3-yl)-(3-ethoxy-phenyl)-amine], the inhibition at 10 µM turned out to be 101% and the half-inhibitory concentration (IC50) is 142 nM.
As for `CCOc1cccc(Nc2[nH]nc3c2C(CC)c2cc(OC)c(OC)cc2-3)c1` (centres unmarked) [Compound 505, (3-Ethoxy-phenyl)-(4-ethyl-6,7-dimethoxy-2,4-dihydro-indeno[1,2-c]pyrazol-3-yl)-amine], the inhibition at 10 µM was found to be 97% and the half-maximal inhibitory concentration (IC50) is 134 nM.
For `CNC(=O)CCCC(=O)n1nc(Nc2cccc(F)c2)c2c1-c1cc(OC)c(OC)cc1C2` [Compound 506, 5-[3-(3-Fluoro-phenylamino)-6,7-dimethoxy-4H-indeno[1,2-c]pyrazol-1-yl]-5-oxo-pentanoic acid methylamide], in that order: 97% and 29.4 nM.
With `COC(=O)Cn1nc(Nc2cccc(F)c2)c2c1-c1cc(OC)c(OC)cc1C2` [Compound 509, [3-(3-Fluoro-phenylamino)-6,7-dimethoxy-4H-indeno[1,2-c]pyrazol-1-yl]-acetic acid methyl ester], the inhibition at 10 µM came out at 30.5%.
With `CCOC(=O)Cn1nc2c(c1Nc1cccc(F)c1)Cc1cc(OC)c(OC)cc1-2` [Compound 510, [3-(3-Fluoro-phenylamino)-6,7-dimethoxy-4H-indeno[1,2-c]pyrazol-2-yl]-acetic acid ethyl ester], the inhibition at 10 µM was 57% and the IC50 was found to be 26600 nM.
For `CCOC(=O)Cn1nc(Nc2cccc(F)c2)c2c1-c1cc(OC)c(OC)cc1C2` [Compound 511, [3-(3-Fluoro-phenylamino)-6,7-dimethoxy-4H-indeno[1,2-c]pyrazol-1-yl]-acetic acid ethyl ester], in that order: 51% and 12500 nM.
For `CCC1c2cc(OC)c(OC)cc2-c2n[nH]c(Nc3cccc(OC)c3)c21` (centres unmarked) [Compound 512, (4-Ethyl-6,7-dimethoxy-2,4-dihydro-indeno[1,2-c]pyrazol-3-yl)-(3-methoxy-phenyl)-amine], in that order: 92% and 183 nM.
Take `COc1cc2c(cc1OC)-c1c(c(Nc3cccc(F)c3)nn1C(=O)Oc1ccccc1Cl)C2` [Compound 513, 3-(3-Fluoro-phenylamino)-6,7-dimethoxy-4H-indeno[1,2-c]pyrazole-1-carboxylic acid 2-chloro-phenyl ester]: the inhibition at 10 µM was found to be 86% and the IC50 stood at 773 nM.
As to `CCC1c2cc(OC)c(OC)cc2-c2c1c(Nc1cccc(Br)c1)nn2C(=O)COC` (centres unmarked) [Compound 514, 1-[3-(3-Bromo-phenylamino)-4-ethyl-6,7-dimethoxy-4H-indeno[1,2-c]pyrazol-1-yl]-2-methoxy-ethanone], the inhibition at 10 µM was 85% and the IC50 was found to be 240 nM.
On to `CCC1c2cc(OC)c(OC)cc2-c2nn(C(=O)COC)c(Nc3cccc(Br)c3)c21` (centres unmarked) [Compound 515, 1-[3-(3-Bromo-phenylamino)-4-ethyl-6,7-dimethoxy-4H-indeno[1,2-c]pyrazol-2-yl]-2-methoxy-ethanone], for which the inhibition at 10 µM stood at 90% and the IC50 came to 136 nM.
On to `COc1cc2c(cc1OC)-c1c(c(Nc3cccc(F)c3)nn1C(=O)NCCN)C2` [Compound 516, 3-(3-Fluoro-phenylamino)-6,7-dimethoxy-4H-indeno[1,2-c]pyrazole-1-carboxylic acid (2-amino-ethyl)-amide], for which the inhibition at 10 µM came to 68.5% and the IC50 stood at 10000 nM.
Take `COc1cc2c(cc1OC)-c1c(c(Nc3cccc(F)c3)nn1C(=O)NCCN(C)C)C2` [Compound 517, 3-(3-Fluoro-phenylamino)-6,7-dimethoxy-4H-indeno[1,2-c]pyrazole-1-carboxylic acid (2-dimethylamino-ethyl)-amide]: the inhibition at 10 µM was 75.5% and the IC50 was 1790 nM.
For the molecule `CCC1c2cc(OC)c(OC)cc2-c2nn(C(=O)COCc3ccccc3)c(Nc3cccc(Br)c3)c21` (centres unmarked) [Compound 518, 2-Benzyloxy-1-[3-(3-bromo-phenylamino)-4-ethyl-6,7-dimethoxy-4H-indeno[1,2-c]pyrazol-2-yl]-ethanone], the inhibition at 10 µM came out at 92.5% and the IC50 stood at 184 nM.
On to `CCC1c2cc(OC)c(OC)cc2-c2c1c(Nc1cccc(Br)c1)nn2C(=O)COCc1ccccc1` (centres unmarked) [Compound 519, 2-Benzyloxy-1-[3-(3-bromo-phenylamino)-4-ethyl-6,7-dimethoxy-4H-indeno[1,2-c]pyrazol-1-yl]-ethanone], for which the inhibition at 10 µM is 97.5% and the concentration for half-maximal inhibition (IC50) came out at 139 nM.
In the case of `COc1cc2c(cc1OC)-c1c(c(Nc3cccc(F)c3)nn1C(=O)NCCN1CCCC1)C2` [Compound 520, 3-(3-Fluoro-phenylamino)-6,7-dimethoxy-4H-indeno[1,2-c]pyrazole-1-carboxylic acid (2-pyrrolidin-1-yl-ethyl)-amide], the inhibition at 10 µM came out at 100% and the IC50 was 65.2 nM.
